Data taken from PMC5053523, “In Vitro Antibacterial Activity of Rhodanine Derivatives against Pathogenic Clinical Isolates” (PLoS ONE, 2016).
≈ marks a conversion by molar mass, not a printed value. Where two headings read alike, the source gives them in different places.

Assays:
Pseudomonas aeruginosa [1] = test: MIC with/without sub-MIC colistin, Pseudomonas aeruginosa; format: cell-based
Description: (§1) The MIC of the rhodanines and control antibiotics, in the presence of a sub-inhibitory concentration of colistin or polymixin B nonapeptide (PMBN), against Gram-negative bacteria was evaluated as described before. The antibacterial activity of the rhodanines was further investigated against E. coli SM1411Δ acrAB, a strain that is deficient in the multidrug-resistant AcrAB efflux pump, as described before.

Escherichia coli O157:H7 [2] = test: MIC with/without sub-MIC colistin, Escherichia coli O157:H7; format: cell-based
Description: as §1

Escherichia coli O157:H7 [3] = test: MIC with/without PMBN, Escherichia coli O157:H7; format: cell-based
Description: as §1

Klebsiella pneumoniae [4] = test: MIC with/without sub-MIC colistin, Klebsiella pneumoniae; format: cell-based
Description: as §1

Acinetobacter baumannii [5] = test: MIC with/without sub-MIC colistin, Acinetobacter baumannii; format: cell-based
Description: as §1

MRSA USA300 = test: MIC against MRSA USA300 with and without 4% human serum albumin; format: cell-based, Staphylococcus aureus; settings: Staphylococcus aureus, read-out: MIC against MRSA USA300
Description: The minimum inhibitory concentration (MIC) and the minimum bactericidal concentration (MBC) of rhodanine compounds 1 to 7 were determined against various Gram-positive and Gram-negative pathogens (S1 Table) following the guidelines of the Clinical and Laboratory Standards Institute (CLSI)[4]. The broth microdilution technique was used, followed by subculturing on agar plates that were rhodanine—free. […] The MICs reported represent the lowest concentration of each compound necessary to inhibit bacterial growth and the MBCs represent the lowest concentration required to reduce the initial bacterial inoculum by ≥ 99.9%.
The antimicrobial activity of rhodanine compounds in the presence of 4% human serum albumin (HSA) was tested against MRSA USA300. The MICs of rhodanine compounds and control antibiotics (vancomycin and daptomycin) were tested as described in the methods above using tryptic soy broth spiked with 4% HSA. We also synthesized and tested three more compounds, ethyl ester and amide of rhodanine 2 (Rh 8 and Rh 10, respectively) and ethyl ester of rhodanine 3 (Rh 9) to determine the influence of a carboxyl group modification toward anti-MRSA activity and human serum albumin (HSA) binding.

Klebsiella pneumoniae [6] = test: MIC with/without PMBN, Klebsiella pneumoniae; format: cell-based
Description: as §1

Acinetobacter baumannii [7] = test: MIC with/without PMBN, Acinetobacter baumannii; format: cell-based
Description: as §1

Escherichia coli Δ acrAB = test: MIC against E. coli 1411 and AcrAB efflux pump deficient E. coli SM1411Δ acrAB; format: cell-based
Description: as §1

Salmonella Typhimurium [8] = test: MIC with/without PMBN, Salmonella Typhimurium; format: cell-based
Description: as §1

Salmonella Typhimurium [9] = test: MIC with/without sub-MIC colistin, Salmonella Typhimurium; format: cell-based
Description: as §1

Pseudomonas aeruginosa [10] = test: MIC with/without PMBN, Pseudomonas aeruginosa; format: cell-based
Description: as §1

[11] = Pseudomonas aeruginosa ATCC 921, colistin (+) […], read-out: MIC
[12] = Escherichia coli O157:H7 ATCC 35150, colistin (+) […], read-out: MIC
[13] = Escherichia coli O157:H7 ATCC 700728, colistin (+) […], read-out: MIC
[14] = Escherichia coli O157:H7 ATCC 35150, PMBN (+) 4 μg/mL, read-out: MIC
[15] = Escherichia coli O157:H7 ATCC 700728, PMBN (+) 4 μg/mL, read-out: MIC
[16] = Klebsiella pneumoniae ATCC BAA 2146, colistin (+) […]
[17] = Acinetobacter baumannii ATCC BAA747, colistin (+) […], read-out: MIC
[18] = Acinetobacter baumannii ATCC BAA19606, colistin (+) […], read-out: MIC
[19] = Acinetobacter baumannii, ATCCBAA747
[20] = Acinetobacter baumannii, ATCCBAA19606
[21] = Klebsiella pneumoniae ATCC BAA 1706, PMBN (+) 4 μg/mL
[22] = Klebsiella pneumoniae ATCC BAA 2146, PMBN (+) 4 μg/mL
[23] = Acinetobacter baumannii ATCC BAA747, PMBN (+) 4 μg/mL, read-out: MIC
[24] = Acinetobacter baumannii ATCC BAA19606, PMBN (+) 4 μg/mL, read-out: MIC
[25] = E.coli 1411 SM (Δ acrAB, AcrAB efflux pump deficient)
[26] = Salmonella Typhimurium ATCC 700720, PMBN (+) 4 μg/mL, read-out: MIC
[27] = Salmonella enterica, ATCC 700720 / TYPHIMURIUM
[28] = Salmonella Typhimurium ATCC 700720, colistin (+) […], read-out: MIC
[29] = Pseudomonas aeruginosa ATCC 9721, PMBN (+) 4 μg/mL, read-out: MIC

| Structure (SMILES) | MIC (Pseudomonas aeruginosa [1]; [11]) [µM] | MIC (Escherichia coli O157:H7 [2]; [12]) [µM] | MIC (Escherichia coli O157:H7 [2]; [13]) [µM] | MIC (Escherichia coli O157:H7 [3]; [14]) [µM] | MIC (Escherichia coli O157:H7 [3]; [15]) [µM] | MIC (Klebsiella pneumoniae [4]; [16]) [µM] | MIC (Klebsiella pneumoniae [4]; Klebsiella pneumoniae, BAA2146) [µM] | MIC (Acinetobacter baumannii [5]; [17]) [µM] | MIC (Acinetobacter baumannii [5]; [18]) [µM] | MIC (Klebsiella pneumoniae [6]; [21]) [µM] | MIC (Klebsiella pneumoniae [6]; [22]) [µM] | MIC (Klebsiella pneumoniae [6]; Klebsiella pneumoniae, BAA1706) [µM] | MIC (Klebsiella pneumoniae [6]; Klebsiella pneumoniae, BAA2146) [µM] | MIC (Acinetobacter baumannii [7]; [23]) [µM] | MIC (Acinetobacter baumannii [7]; [24]) [µM] | MIC (Escherichia coli Δ acrAB; E.coli 1411) [µM] | MIC (Escherichia coli Δ acrAB; [25]) [µM] | MIC (Salmonella Typhimurium [8]; [26]) [µM] | MIC (Salmonella Typhimurium [9]; [28]) [µM] | MIC (Pseudomonas aeruginosa [10]; [29]) [µM] | other results |
| --- | --- | --- | --- | --- | --- | --- | --- | --- | --- | --- | --- | --- | --- | --- | --- | --- | --- | --- | --- | --- | --- |
| CCCCCCCCCC(=O)N[C@@H](Cc1c[nH]c2ccccc12)C(=O)N[C@H](CC(N)=O)C(=O)N[C@@H](CC(=O)O)C(=O)N[C@@H]1C(=O)NCC(=O)N[C@@H](CCCN)C(=O)N[C@@H](CC(=O)O)C(=O)N[C@H](C)C(=O)N[C@@H](CC(=O)O)C(=O)NCC(=O)N[C@H](CO)C(=O)N[C@@H]([C@H](C)CC(=O)O)C(=O)N[C@@H](CC(=O)c2ccccc2N)C(=O)O[C@@H]1C [Daptomycin, reference compound] | >64 | >64 | >64 | >256 | >64 | >64 | > 128 | >64 | >64 | >64 | >64 | > 128 | > 128 | >64 | >64 | > 64 | > 64 | >128 | >64 | >64 | MIC (Pseudomonas aeruginosa [1]; Pseudomonas aeruginosa, ATCC921): > 128 µM; MIC (Escherichia coli O157:H7 [2]; ATCC35150, Escherichia coli O157:H7 ATCC 35150, colistin (-), read-out: MIC): > 128 µM; MIC (Escherichia coli O157:H7 [2]; ATCC700728, Escherichia coli O157:H7 ATCC 700728, colistin (-), read-out: MIC): > 128 µM; MIC (Escherichia coli O157:H7 [3]; ATCC35150, Escherichia coli O157:H7 ATCC 35150, PMBN (-), read-out: MIC): > 256 µM; MIC (Escherichia coli O157:H7 [3]; ATCC700728, Escherichia coli O157:H7 ATCC 700728, PMBN (-), read-out: MIC): > 128 µM; MIC (Acinetobacter baumannii [5]; [19]): > 128 µM; MIC (Acinetobacter baumannii [5]; [20]): > 128 µM; MIC (MRSA USA300; 24 h, Media TSB + 4% HSA): 64 µM; MIC (MRSA USA300; Media TSB): 4 µM (≈ 6.48 µg/mL); MIC (Acinetobacter baumannii [7]; [19]): > 128 µM; MIC (Acinetobacter baumannii [7]; [20]): > 128 µM; MIC (Salmonella Typhimurium [8]; [27]): > 128 µM; MIC (Salmonella Typhimurium [9]; [27]): > 128 µM; MIC (Pseudomonas aeruginosa [10]; Pseudomonas aeruginosa, ATCC9721): > 128 µM |
| CC[C@H]1OC(=O)[C@H](C)[C@@H](O[C@H]2C[C@@](C)(OC)[C@@H](O)[C@H](C)O2)[C@H](C)[C@@H](O[C@@H]2O[C@H](C)C[C@H](N(C)C)[C@H]2O)[C@](C)(O)C[C@@H](C)C(=O)[C@H](C)[C@@H](O)[C@]1(C)O [Erythromycin, erythromycin, reference compound] | 16 (≈ 11.7 µg/mL) | ≤0.5 | ≤0.5 | 4 (≈ 2.94 µg/mL) | 2 (≈ 1.47 µg/mL) | >64 | > 128 | 1 (≈ 0.734 µg/mL) | 2 (≈ 1.47 µg/mL) | 64 (≈ 47 µg/mL) | >64 | > 128 | > 128 | ≤0.5 | 2 (≈ 1.47 µg/mL) | > 64 | 2 (≈ 1.47 µg/mL) | 4 (≈ 2.94 µg/mL) | 16 (≈ 11.7 µg/mL) | 1 (≈ 0.734 µg/mL) | MIC (Pseudomonas aeruginosa [1]; ATCC921, Pseudomonas aeruginosa ATCC 921, colistin (-), read-out: MIC): 64 µM (≈ 47 µg/mL); MIC (Escherichia coli O157:H7 [2]; Escherichia coli, ATCC35150): 32 µM (≈ 23.5 µg/mL); MIC (Escherichia coli O157:H7 [2]; Escherichia coli, ATCC700728): 32 µM (≈ 23.5 µg/mL); MIC (Escherichia coli O157:H7 [3]; Escherichia coli, ATCC35150): 128 µM (≈ 93.9 µg/mL); MIC (Escherichia coli O157:H7 [3]; Escherichia coli, ATCC700728): 32 µM (≈ 23.5 µg/mL); MIC (Acinetobacter baumannii [5]; ATCCBAA747, Acinetobacter baumannii ATCC BAA747, colistin (-), read-out: MIC): 4 µM (≈ 2.94 µg/mL); MIC (Acinetobacter baumannii [5]; ATCCBAA19606, Acinetobacter baumannii ATCC BAA19606, colistin (-), read-out: MIC): 16 µM (≈ 11.7 µg/mL); MIC (Acinetobacter baumannii [7]; ATCCBAA747, Acinetobacter baumannii ATCC BAA747, PMBN (-), read-out: MIC): 4 µM (≈ 2.94 µg/mL); MIC (Acinetobacter baumannii [7]; ATCCBAA19606, Acinetobacter baumannii ATCC BAA19606, PMBN (-), read-out: MIC): 16 µM (≈ 11.7 µg/mL); MIC (Salmonella Typhimurium [8]; Salmonella enterica, ATCC 700720 / TYPHIMURIUM, Salmonella Typhimurium ATCC 700720, PMBN (-), read-out: MIC): 64 µM (≈ 47 µg/mL); MIC (Salmonella Typhimurium [9]; Salmonella enterica, ATCC 700720 / TYPHIMURIUM, Salmonella Typhimurium ATCC 700720, colistin (-), read-out: MIC): 64 µM (≈ 47 µg/mL); MIC (Pseudomonas aeruginosa [10]; ATCC9721, Pseudomonas aeruginosa ATCC 9721, PMBN (-), read-out: MIC): 64 µM (≈ 47 µg/mL) |
